The values that follow come from US10934577B2, “Assays for resistance to echinocandin-class drugs” (priority 2005, dated 2021).

Experiment [1] has as its system C. albicans strains CAI4 and M70, laboratory-derived isolates with reduced susceptibility. Put plainly: In vitro caspofungin susceptibility testing, liquid microbroth dilution assay in RPMI-1640 (NCCLS M27-A2). Particulars: Candida albicans; all laboratory-derived isolates (35 from CAI4, 50 from M70) selected on 4 μg/ml caspofungin. The class given is cell-based. As for the experimental part:
(§1) Spontaneous mutants of C. albicans strains CAI4 and M70 resistant to caspofungin were isolated by direct selection on solid growth media containing 4 μg/ml (forty times the MIC) caspofungin. The frequency of formation of spontaneous caspofungin-resistant derivatives for both strains was <10^−8 mutants per viable cell. For both strains, the formation of rare shrunken slow-growing colonies on the plates with caspofungin was observed. […] After prolonged incubation for more than 10 days, a small fraction of small shrunken colonies gave rise to smooth fast-growing derivatives which were able to propagate on caspofungin-containing media after reinoculation. Only one such derivative per individual plate/culture was saved and used for further analysis. In total, 35 and 50 isolates with reduced susceptibility to caspofungin were isolated for strains CAI4 and M70, respectively. […] Details of the isolation procedure are set forth in Example 2.
C. albicans strain CAI4 was purchased from ATCC (ATCC, Manassas, Va.). C. albicans strain M70 was from the Merck culture collection (MRL, Rahway, N.J.). Strains were grown on yeast extract-peptone-dextrose (YPD) medium (1% yeast extract, 2% Bacto Peptone, 2% dextrose). For growth of strain CAI4, YPD medium was supplemented by uridine (Sigma-Aldrich, St. Louis, Mo.) at 25 mg/ml. Caspofungin (Merck, Rahway, N.J.) was added directly to YPD at 4 μg/ml. […]
(In general: Dilution methods test growth across graded concentrations, often in twofold steps.)

Experiment [2] concerns C. albicans strains CAI4 and M70. Put plainly: Isolation of spontaneous caspofungin-resistant mutants by direct selection on solid media containing caspofungin. It is filed as cell-based, Candida albicans. Particulars: both strains CAI4 and M70; YPD plates with 4 μg/ml caspofungin (forty times the MIC). As to the method:
as §1
Spontaneous caspofungin-resistant mutants of C. albicans strains CAI4 and M70 were isolated by plating 100 ul (˜10^8 cells) of an 18 h liquid YPD culture on YPD plates containing 4 μg/ml caspofungin. Serial dilutions of the overnight cultures were plated on the YPD plates without antibiotic selection to precisely determine starting colony counts. Selection plates were incubated for 10-14 days at 30° C. […]

A value given as a limit tells only on which side of the number the result lay.

Usually MIC stands for the least concentration at which growth counts as inhibited. Consider `CC[C@H](C)C[C@H](C)CCCCCCCCC(=O)N[C@H]1C[C@@H](O)[C@@H](NCCN)NC(=O)[C@@H]2[C@@H](O)CCN2C(=O)[C@H]([C@H](O)CCN)NC(=O)[C@H]([C@H](O)[C@@H](O)c2ccc(O)cc2)NC(=O)[C@@H]2C[C@@H](O)CN2C(=O)[C@H]([C@@H](C)O)NC1=O` [caspofungin], for which the MIC in experiment [1] was > 16 µg/mL. Besides, the “frequency of formation of spontaneous caspofungin-resistant derivatives” value in experiment [2] was < 10^−8 mutants per viable cell.
